We go through one molecule from patent US20250090597A1, “AIRWAY BASAL CELL ENGRAFTMENT METHODS” (TRUSTEES OF BOSTON UNIVERSITY, priority 2023, published 2025).

In assay [1] the test system is tracheal airway epithelial cells. The assay is described as follows: Post-polidocanol injury mouse tracheal histological time series. It is filed as in vivo. From the text: Intra-tracheal delivery of polidocanol was employed to ablate tracheal airway epithelial cells (see e.g., FIG. 9A). […] Am J Resp Cell Mol 24, 662-670; Engler et al. (2020). Cell Reports 33, 108553; the contents of which are incorporated herein by reference in their entireties. It is contemplated herein that acute epithelial sloughing can generate a temporarily exposed niche on the airway basement membrane for exogenous cells to land. To determine the time window for BC transplantation post polidocanol-mediated injury, tracheal tissues were analyzed in a time series following injury. […] Therefore, donor cells were transplanted five hours post-injury.
Adult recipient mice (8-16 weeks old) were used for all transplantation studies. Tracheal epithelial injury was induced in isoflurane anesthetized mice by intratracheal delivery of 20 μL of 2% polidocanol using the tongue pull method, followed by recovery prior to cell delivery 5-5.5 hours later. Specifically, the recipient animal was anesthetized with 3% isoflurane until the animal developed exaggerated respiratory movements at rates of 1-1.5 breath/second. Then the mouse was lightly restrained by operator, while a second operator delivered polidocanol solution directly into the posterior oropharynx of the mouse. The nose was gently held to encourage the animal to aspirate through the […], about 2-4 times, or until the liquid was no longer visible. For cell transplants, mice were re-anesthetized and 6×10^6 primary BCs or iBCs suspended in 20 μL of DMEM were intratracheally instilled as above.

Assay [2] shares this test system. Conditions: Borthwick et al. 2001; Engler et al. 2020; cited from earlier work.

In the case of `CCCCCCCCCCCCOCCOCCOCCOCCOCCOCCOCCOCCOCCO` [polidocanol], the entries for the “tracheal epithelium state after polidocanol exposure” value in assay [1] (12 hours after polidocanol exposure) and in assay [1] (seven hours after polidocanol exposure) were “patches of rounded or cuboidal epithelial cells characterized the regenerating epithelium” and “residual cells had flattened to cover the basement membrane”, respectively. Besides, the “tracheal epithelial sloughing after polidocanol exposure” value in assay [1] (five hours after polidocanol exposure) is “epithelial sloughing was more complete with sporadic residual individual cells and more denuded basement membrane”; in assay [1] (three hours after polidocanol exposure, 20 μL of 2% polidocanol intratracheal, H&E) it was “Extensive epithelial sloughing”. In addition, the “time to tracheal epithelial sloughing after polidocanol exposure” value in assay [2] is “within three hours”.
